# Measured values from PMC6474902, “Examination of novel 4-aminoquinoline derivatives designed and synthesized by a hybrid pharmacophore approach to enhance their anticancer activities” (Scientific Reports, 2019).
# “Also recorded” adds a separate entry of the source. Like-named read-outs stand apart in the source and are kept apart here.
# Tests used:
# HeLa = assay: Combination with bortezomib, cell death; assay type: cell-based, human; settings: 48 h post-treatment; BTZ 6 nM, compound 13 0.75 µM, alone or combined
# 184B5 = assay: SRB antiproliferative/antigrowth assay, non-cancer cells; assay type: cell-based, human; settings: Homo sapiens, 184B5, 48 h, read-out: GI50 184B5
# Description: (§1) The antigrowth effects of 4-piperazinylquinoline sulfonyl analogs on human breast tumor cells was initially evaluated using MDA-MB468 (a PTEN defective, EGFR positive breast adenocarcioma), MDA-MB231 (p53 and pRB mutated, triple-negative breast carcinoma), and MCF7 (p53+/−, invasive ductal breast carcinoma) cell lines. In addition, the cytotoxicity of all the compounds was also evaluated with the 184B5 and MCF10A non-cancer immortalized breast epithelial cell lines, to determine if these newly synthesized compounds have differential cytotoxic effects on cancer and non-cancer cells. The panel of three breast cancer cell lines with different genetic back ground and the well-studied two non-cancer immortalized breast cell lines would provide insights into the efficacy and toxicity of the test compounds in the different genetic background and at different stages of tumor development. The dose response of each cell line was established by determining the number of viable cells after 48 h of continuous drug treatment against seven different concentrations (100 µM to 0.0064 µM) of each compound. The reading of sulphorodamine B (SRB) staining is known to accurately reflect the level of total cellular macromolecules/cell growth/proliferation[6],[23]. […] The data for CQ and cisplatin were included as references. […] The differences in the GI50 values may be attributable to such factors as the nature of the sulfonyl group and the halogen substitution on the 7th position of the 4-piperazinylquinoline ring system, and the genetic and biochemical background of the cell lines.
# (§2) Antiproliferative/antigrowth effects were determined by a SRB-based protocol[6],[23]. For a typical screening experiment, 5,000–10,000 cells were inoculated into 100 µL medium per well of a 96-well microtiter plate as described previously. Briefly, after the inoculation, the microtiter plate was incubated at 37 °C, 5% CO2, 95% air and 100% relative humidity for 24 h, prior to addition of experimental drugs. Some of the sample wells were fixed with 25 µL of 50% tricholoroacetic acid (TCA) as a control of the cell population for each cell line at the time of drug addition (Tz). An aliquot of the frozen stock was thawed and diluted to a desired final maximum test-concentration with complete medium. Two to ten-fold serial dilutions were made to provide a total of seven drug concentrations (and a control [C]). Following addition of drugs, the culture plate was incubated for additional 48 h. Cells were fixed in situ by slowly adding 25 µL of ice-cold 50% (w/v) TCA (final concentration, 10% TCA), and were then incubated for 60 min at 4 °C. The supernatant was discarded, and the plate was washed five times with tap water, followed by air-dry. 50 µL of SRB solution at 0.4% (w/v) in 1% acetic acid was added to each well, and the plate was incubated for >30 min at room temperature. Unbound SRB was removed by five washes with tap water, followed by air-drying. The cells “stained” with SRB were solubilized with 10 mM trizma base, and the absorbance was read on an automated plate reader at a wavelength of 515–564 nm. The relative growth rate (%) was calculated for each of the compound concentrations according to the following formula: (Ti−Tz)/(C−Tz)×100
# (§3) In the formula, time zero (Tz), control growth (C), and OD for different concentration of tested compounds (Ti). The GI50 for each compound was obtained from a non-linear Sigmoidal dose-response (variable slope) curve which is fitted by GraphPad Prism v.4.03 software. Values were calculated for each of these parameters if the level of activity was reached. However, if the effect was not reached or was exceeded, the value for that parameter was expressed as greater or less than the maximum or minimum concentration tested.
# MCF10A = assay: as above; assay type: cell-based, human; settings: Homo sapiens, MCF-10A, read-out: GI50 MCF10A
# Description: as §1, §2, §3
# lysosomal volume = test system: lysosomal volume; parameters: method as in PMID 16137197; settings: cited from earlier work
# MCF7 = assay: SRB antiproliferative/antigrowth assay; assay type: cell-based, human
# Description: as §1, §2, §3
# MDA-MB231 = assay: SRB antiproliferative/antigrowth assay; assay type: cell-based, human; settings: for GI50: Homo sapiens, read-out: GI50 MB231
# Description: as §1, §2, §3
# MDA-MB468 = assay: SRB antiproliferative/antigrowth assay; assay type: cell-based, human; settings: Homo sapiens, read-out: GI50 MB468
# Description: as §1, §2, §3
# [1] = test system: MDA-MB231, MDA-MB468, MCF7 breast cancer cells; 184B5 and MCF10A non-cancer breast cells; assay: SRB assay, panel of breast cancer and non-cancer breast cell lines; assay type: cell-based, human; settings: judged from GI50 values of Table 1
# Description: as §1, §2, §3
# HeLa cells = assay: Sequential treatment with monastrol and compound 13, DNA content; assay type: cell-based, human; settings: 100 μM monastrol, 18 h
# Description: 0 h 2 h post-monastrol 4 h post-monastrol 6 h post-monastrol […]
# death. HeLa cells, treated with 100 μM of monastrol for 18 h (defined 0 h), were released into complete medium in the absence (sham) or presence of 10 μM compound 13 (VR23). Note that monastrol arrested cells […]
# [2] = SRB, 48 h post-treatment, non-cancer breast epithelial cells
# [3] = Homo sapiens, MCF7, SRB, 48 h post-treatment, mean of triplicates of at least two experiments, read-out: GI50 MCF7
# [4] = MDA-MB-231, SRB, 48 h post-treatment, mean of triplicates of at least two experiments
# [5] = MDA-MB-468, SRB, 48 h post-treatment, mean of triplicates of at least two experiments
# [6] = 48 h, SRB, 48 h post-treatment, non-cancer breast epithelial cells
# [7] = Homo sapiens, MCF7, 48 h, SRB, 48 h post-treatment, mean of triplicates of at least two experiments, read-out: GI50 MCF7
# [8] = MDA-MB-231, 48 h, SRB, 48 h post-treatment, mean of triplicates of at least two experiments
# [9] = MDA-MB-468, 48 h, SRB, 48 h post-treatment, mean of triplicates of at least two experiments
SMILES,GI50 (184B5) [µM],melting point [°C],preferential antigrowth effect on cancer versus non-cancer cells (in words) [1],GI50 (184B5; [2]) [µM],GI50 (MCF10A; [6]) [µM],GI50 (MCF7; [7]) [µM],GI50 (MDA-MB231; [8]) [µM],GI50 (MDA-MB468; [9]) [µM],further results
"CC(C)C[C@H](NC(=O)[C@H](Cc1ccccc1)NC(=O)c1cnccn1)B(O)O [Bortezomib, bortezomib, reference compound]",–,–,–,–,–,–,–,–,cell death (HeLa): neither 6 nM BTZ nor 0.75 µM of compound 13 resulted in substantial HeLa cell death
"CCN(CC)CCCC(C)Nc1ccnc2cc(Cl)ccc12 (centres unmarked) [Chloroquine, reference compound]",76.1 ± 1.1,–,–,–,–,–,–,–,"GI50 (MCF10A; 48 h): 81.3 ± 1.3 µM; lysosomal volume (lysosomal volume): causes an increase in lysosomal volume; GI50 (MCF7; Homo sapiens, MCF7, 48 h, read-out: GI50 MCF7, SRB, 48 h post-treatment, mean of triplicates of at least two experiments): 38.4 µM; GI50 (MCF7; read-out: GI50 MCF7, SRB, 48 h post-treatment, mean of triplicates of at least two experiments): 38.4 ± 1.2 µM; GI50 (MDA-MB231; MDA-MB-231, 48 h): 22.5 ± 1.4 µM; GI50 (MDA-MB468; MDA-MB-468, 48 h): 28.6 ± 1.3 µM"
"O=[N+]([O-])c1ccc(S(=O)(=O)N2CCN(c3ccnc4cc(C(F)(F)F)ccc34)CC2)c([N+](=O)[O-])c1 [Compound 22, 4-[4-(2,4-Dinitro-benzenesulfonyl)-piperazin-1-yl]-7-trifluoromethyl-quinoline]",37.8 ± 0.4,178 to 180,effective and preferential antigrowth effects on cancer cells; also recorded: stronger antigrowth/antiproliferation activity against cancer cells than non-cancer cells,–,–,–,–,–,GI50 (MCF10A; [2]): 35.4 ± 0.5 µM; GI50 (MCF7; [3]): 10.8 ± 0.1 µM; GI50 (MDA-MB231; [4]): 24.3 ± 0.6 µM; GI50 (MDA-MB468; [5]): 19.2 ± 0.6 µM
"CN(C)c1cccc2c(S(=O)(=O)NCCCNc3ccnc4cc(Cl)ccc34)cccc12 [Compound 32, 5-Dimethylamino-naphthalene-1-sulfonic acid [3-(7-chloro-quinolin-4-ylamino)-propyl]-amide]",–,190 to 192,loss of preferential antigrowth effects on cancer cells,1.7 ± 0.1,2.6 ± 0.1,2.45,12.7 ± 1,4.6 ± 0.4,"GI50 (MCF7; SRB, 48 h post-treatment, mean of triplicates of at least two experiments, read-out: GI50 MCF7): 2.5 ± 0.1 µM; increase in potency against MCF7 compared to CQ (MCF7; ratio of GI50 values): 15.7 fold"
"Cc1ccc(S(=O)(=O)NCCCNc2ccnc3cc(C(F)(F)F)ccc23)cc1 [Compound 35, 4-Methyl-N-[3-(7-trifluoromethyl-quinolin-4-ylamino)-propyl]-benzenesulfonamide]",–,77 to 79,effective and preferential antigrowth effects on cancer cells; also recorded: stronger antigrowth/antiproliferation activity against cancer cells than non-cancer cells,12.2 ± 0.9,10.9 ± 0.9,6.9 ± 0.5,6.4 ± 0.5,6.2 ± 0.4,–
"O=[N+]([O-])c1ccc(S(=O)(=O)NCCCNc2ccnc3cc(C(F)(F)F)ccc23)c([N+](=O)[O-])c1 [Compound 40, 2,4-Dinitro-N-[3-(7-trifluoromethyl-quinolin-4-ylamino)-propyl]-benzenesulfonamide]",15.9 ± 0.9,198 to 200,effective and preferential antigrowth effects on cancer cells; also recorded: stronger antigrowth/antiproliferation activity against cancer cells than non-cancer cells,–,–,–,–,–,GI50 (MCF10A; [2]): 22.3 ± 0.8 µM; GI50 (MCF7; [3]): 5.6 ± 0.3 µM; increase in antigrowth activity against MDA-MB231 compared to mono nitro substituted compounds (30 and 39) (MDA-MB231): 1.7–2.3 fold; GI50 (MDA-MB231; [4]): 8.9 ± 0.8 µM; GI50 (MDA-MB468; [5]): 8.5 ± 0.4 µM
"COC(=O)c1sccc1S(=O)(=O)NCCCNc1ccnc2cc(C(F)(F)F)ccc12 [Compound 42, 3-[3-(7-Trifluoromethyl-quinolin-4-ylamino)-propylsulfamoyl]-thiophene-2-carboxylic acid methyl ester]",–,137 to 139,effective and preferential antigrowth effects on cancer cells; also recorded: stronger antigrowth/antiproliferation activity against cancer cells than non-cancer cells,12.1 ± 0.5,14.4 ± 0.8,4.3 ± 0.2,7.5 ± 0.6,4.6 ± 0.2,–
CCOC(=O)C1=C(C)NC(=S)NC1c1cccc(O)c1 (centres unmarked) [monastrol],–,–,–,–,–,–,–,–,cell cycle arrest (HeLa cells): arrested cells at G2/M
